Source: patent publication US20030148259A1, “Method of identifying insulin secretion stimulating compounds, and the use of such compounds in treating insulin-secretion related disorders” (priority 2002, published 2003)
Ends that are not written are not given here.

Assays:
[1] = system: cAMP-PDEs; test: Phosphodiesterase assay (cAMP-PDE activity in insulinoma cell fractions); format: biochemical, rat; conditions: for inhibition of cAMP-PDEs: methylxanthine 2.5 mM, FIG. 8D
Protocol: Rat insulinoma cells were detached from the flasks by trypsin-EDTA. The cells were homogenized in Tris buffer containing (in mM): Tris 10, sucrose 250, EDTA 1.0, phenylmethylsulphonyl fluoride 0.01 and benzamidine 1.0The homogenates were centrifuged (48,000 g, 20 min, 4° C.). Both soluble extracts and the pellet were assayed for cAMP-PDE activity with 0.5 μM 2,8-[^3H]-cyclic AMP as substrate (see Ahmad, M. et al., Br.J.Pharmacol., 129, 1228-1234 (2000) and Thompson, W. J. and Appleman, M. M., Biochemistry, 10, 311-316 (1971)). Assays were performed by the two-step radiometric assay under linear rate formation of product and where less than 10% of substrate is utilized. Activity was expressed as pmol/min/ml and percentage inhibition of the control value.

[2] = system: INS-1E cells; test: Insulin release from INS-1E cells (insulin ELISA); format: cell-based, rat
Protocol: Glucose-responsive clonal insulinoma cells (INS-1E) were cultured in RPMI-1640 medium supplemented with FBS (5%, v/v), penicillin (50 i.u. /ml), streptomycin (50 μg/ml), 2-mercaptoethanol (50 μM), HEPES (10 mM) and sodium pyruvate (1 mM) (Maechler, P. et al., IUBMB.Life 50, 27-31(2000). Medium was changed every other day.
INS-1E cells (200,000/ well) were seeded in 24-well plates and cultured for 6-7 days before using them for insulin release assay. On the day of experiment, cells were incubated in RPMI without glucose for 2 hours. Cells attached to the wells were then washed three times with warm (37° C.) medium (KRBH) containing (in mM): NaCl 140, NaHCO3 2, KCl 3.6, NaH2PO4 0.5, MgSO4 0.5, HEPES 10, CaCl2, 1.5, BSA 0.1% and incubated for 30 minutes at 37°. Cells were then incubated with 500 μl of the test solutions, by adding solution to one well at a time, every 20 sec. After one hour of incubation, 200 μl of supernatant was transferred to Eppendorf tubes, again one well at a time, every 20 sec. The collected materials were then centrifuged and supernatants were used for insulin ELISA.

[3] = system: mouse islets; test: Insulin release from perifused islets (radio immunoassay); format: cell-based; conditions: for insulin secretion rate: 40-min stimulation; for stimulation of insulin secretion from islets: 2.5 mM caffeine, 6 μM MBED, FIG. 6
Protocol: Normal lean mice (BALB/c, Bomholtgard, Ry, Denmark) weighing 20-25 g were starved overnight and islets isolated by collagenase digestion and dextran purification method (Shi, C. L., Cell Transplant. 6, 33-37 (1997)). Islets were then cultured overnight in RPMI 1640 medium containing 10% FBS, 11.2 mM glucose, 60 i.u./ml penicillin and 60 μg/ml gentamicin, in a water-saturated atmosphere of air and 5% CO2.
Groups of 50 islets were transferred to a perifusion chamber housed in an infant incubator at 37° C. They were perifused at a rate of 1 ml/ min with Krebs-Ringer bicarbonate buffer supplemented with 20 mM HEPES, 0.1% BSA, glucose and drugs as required. The buffer was continuously gassed with 95% 02 and 5% CO2. The islets were perifused for 30 min with this medium containing 2 mM glucose, followed by a 40-min stimulation with 11.2 mM glucose alone (control), or 11.2 mM glucose plus drugs. During the last five minutes of perifusion with 2 mM glucose, three samples of effluent were collected to measure basal rate of insulin secretion. After switching to the 11.2 mM glucose the effluent was sampled every minute for the first five minutes and then at the intervals of 5 minutes. The average rate of insulin secretion (ng/min/50 islets) was calculated by integrating individual perifusion profile. Insulin was measured by radio immunoassay using crystalline mouse insulin as standard (Shi, C. L. cited above).

[4] = system: INS-1E cells; test: Confocal microscopy imaging of [Ca2+]i in fluo-3 loaded cells; format: cell-based, rat
Protocol: INS-1E cells were incubated in medium containing 5 mM glucose and 5 μM fluo-3 AM for 30 minutes followed by 10 min in medium without fluo-3Cover slips were mounted in a superfusion chamber, which was superfused with physiological solution at 3 ml/min. A three-way solenoid valve system allowed for rapid exchange of solutions. The dead space of the system (from valve inlet to chamber) was -0.5 ml. The flow was increased to 6 ml/min 15 s prior to switching from control solution to experimental solutions and reduced back to 3 ml/min after return to normal solution. [Ca^2+]1 were recorded with a BioRad laser scanning confocal system (BioRad MRC 1024) attached to a Nikon Diaphot 200 inverted microscope equipped with Nikon Plan Apo 60×1.4 NA oil immersion objective. Fluo-3 was excited at 488 nm (15 mW krypton-argon mixed gas laser, intensity attenuated to 3%) and the emitted light was collected through a 522 nm narrow band filter. Images were obtained with the iris closed to the minimum size that was compatible with good image quality. For each image, 3× Kalman averaging was used. Images were stored and converted to pseudo-color images using Scion Image software (Scion Corporation, Maryland).
Ratios were calculated using the initial fluorescence F0, and the observed fluorescence F using the equation R=F/F0, and these ratios were subsequently converted into [Ca^2+]i using the equation: [Ca^2+]i=RxKD/((KD/resting [Ca^2+]i)−R). […] Resting [Ca^2+]i in these cells under the conditions of experiment was 35 nM. All experiments were carried out at room temperature (25° C.).

[5] = system: β-cells; test: Screening for CICR-active agents by periodic amplification of Ca2+ signals in single β-cells (fura-2 microfluorometry); format: cell-based, mouse
[6] = system: S5 cells; test: Screening for CICR by periodic amplification of Ca2+ signals in S5 cells; format: cell-based, rat; conditions: MBED 50 μM, FIG. 4
Protocol: A new type of β-cell, called the S5 cell, which is particularly suitable for use in screening CICR-active drugs in β-cells has been developed by the present inventor. The S5 cells can be obtained from INS-1E cells by adapting the latter to culture conditions where fetal bovine serum is reduced to 2.5% and 2-mercaptoethanol is increased to 500 μM. The S5 cells are more differentiated, more slowly growing than ordinary insulinoma cells, and performs more like normal β-cells.
The S5 cells used in the examples below were obtained by adapting the cells to the above culture conditions over 37 passages. These cells were cultured in RPMI 1640, with L-Glutamine (Life Technologies: Catalog. No. 21875-034), supplemented with HEPES (10 mM, Life Technologies. Catalog. No. 15630-049), and sodium pyruvate (1 mM, Life Technologies. Catalog No. 11360-039). 2.5% (v/v) heat-inactivated fetal bovine serum was added to this medium and the medium was aliquoted in 50 ml tubes. To this medium, 500 μM 2-mercaptoethanol (Life Technologies. Catalog. No. 31350-010) and penicillin (50 i.u./ml), streptomycin (50 μg/ml) (Life Technologies. Catalog. No. 15070-063) was added immediately before the medium was used for culture. 2-mercaptoethanol (50 mM, stock) was aliquoted and stored frozen in 100 μl portions and was thawed just before use. […]

[7] = system: INS-1E cells; test: Measurement of cAMP content; format: cell-based, rat; conditions: caffeine 0.25-3 mM
Protocol: INS-1E cells (20000 per well) were cultured for three days in 24 well plates. On the day of the experiments cells were washed and incubated for 30 min at 37° C. in the KRBH buffer containing 3 mM glucose. Cells were then washed again and solutions containing 11.2 mM glucose and test substances were added. After 10 min, incubations were terminated by removing the medium and precipitating cell protein in 80% ice-cold ethanol. Cells were then scraped and all contents of the wells were transferred to tubes. After centrifugation at 14,000 rpm for five min, the supernatants were collected and freeze-dried over-night. The cAMP content in each sample was determined with a radio ligand-binding assay using a bovine heart cAMP-binding protein as described by Pyne, N. J. and Tolan, D., Pyne, S. in Biochem.J 328 (Pt 2), 689-694 (1997).

[8] = methylxanthine 2.5 mM, 11.2 mM glucose, 1 hr, FIG. 8A/8C
[9] = Example 6, FIG. 3: 10 mM glucose

Compound: Cn1cnc2c(=O)[nH]c(=O)n(C)c21 [3,9-dimethylxanthine]
- inhibition of cAMP-PDEs [1]: slightly less potent than caffeine in inhibiting cAMP-PDEs
- insulin secretion [2, 8]: equally effective as caffeine in stimulating insulin secretion
- insulin secretion rate ([3]; 11.2 mM glucose): 2.76±0.81 ng/min/50 islets
- stimulation of insulin secretion from islets ([3]; 11.2 mM glucose): no significant stimulatory effect

Compound: Cn1c2cnccc2c2c(Br)c(O)c(Br)cc21 [MBED, 5,7-dibromo-6-hydroxy-9-methylpyrido[3,4-b]indole]
- Cytosolic cAMP-PDE activity ([1]; MBED 5 μM): 27.7 ± 2.5 pmol/min/mL
- Membrane cAMP-PDE activity ([1]; MBED 5 μM): 26.5 pmol/min/mL
- Cytosolic cAMP-PDE activity ([1]; MBED 50 μM): 31.6 ± 0.7 pmol/min/mL
- Membrane cAMP-PDE activity ([1]; MBED 50 μM): 23.2 pmol/min/mL
- inhibition of PDEs ([1]; MBED 5 and 50 μM, Table 1): did not inhibit PDEs
- potency relative to caffeine in increasing [Ca2+]i [4]: more potent than caffeine
- change in [Ca2+]i ([4]; MBED 50 μM, FIG. 7): increased [Ca^2+]i
- periodic amplified Ca2+ release in β-cells (summary of screening) [5]: elicit periodic amplified Ca^2+ release
- potency in stimulating insulin secretion relative to caffeine ([2]; 11.2 mM glucose): about 400 times
- insulin secretion ([2]; MBED 6 μM, 3 mM glucose, FIG. 5A): no stimulation of insulin secretion
- insulin secretion ([2]; MBED 6 μM, 11.2 mM glucose, FIG. 5A): almost doubled the insulin secretion
- dose response of insulin secretion ([2]; MBED 0.1 to 100 μM, 11.2 mM glucose, FIG. 5B): stimulated insulin secretion in a does-dependent manner
- potency relative to caffeine in islets ([3]; 6 μM MBED vs 2.5 mM caffeine): clearly more potent than caffeine
- reversal of stimulated secretion on wash out (lack of major toxic effect) ([3]; 11.2 mM glucose): reversed completely on wash out
- stimulation of insulin secretion from islets ([3]; 11.2 mM glucose): persistently stimulated both the first- and second-phases of insulin secretion
- CICR (periodic amplification of Ca2+ signals) [6]: CICR can clearly be identified

Compound: Cn1c(=O)c2c(ncn2C)n(C)c1=O [caffeine]
- change in [Ca2+]i ([4]; caffeine 5 mM, FIG. 10 upper panel): transient increase on [Ca^2+]i
- periodic amplified Ca2+ release in β-cells (summary of screening) [5]: elicit periodic amplified Ca^2+ release
- periodic amplification of Ca2+ signals (CICR) [5, 9]: gave rise to periodic amplifications of Ca^2+ signals
- concentration giving maximal stimulation of secretion ([2]; FIG. 9B): 0.25 to 0.75 mM
- insulin secretion ([2]; caffeine 0.25 mM, FIG. 9B): near-maximal stimulation of insulin secretion
- insulin secretion ([2]; caffeine 0.75 mM, KATP channel bypassed by diazoxide and KCl, FIG. 8B): Stimulation of insulin secretion by caffeine (0.75 mM) was observed
- insulin secretion rate ([2]; caffeine 0.75 mM, without ryanodine): 328±22 ng/10^6 cell/hr
- insulin secretion ([2]; caffeine 2.5 mM, 3 mM glucose, 1 hr, FIG. 8A): did not alter insulin secretion
- insulin secretion [2, 8]: stimulated secretion
- insulin secretion rate ([3]; 11.2 mM glucose): 5.06±1.17 ng/min/50 islets
- stimulation of insulin secretion from islets ([3]; 11.2 mM glucose): persistently stimulated both the first- and second-phases of insulin secretion
- effect on cAMP content [7]: did not increase cAMP content

Compound: O=C1CN(/N=C/c2ccc(-c3ccc([N+](=O)[O-])cc3)o2)C(O)=N1 [dantrolene]
- effect on glucose-dependent stimulation of insulin secretion by caffeine ([2]; dantrolene 75 μM, FIG. 11B): abolished

Compound: Cn1c(=O)c2ncn(C)c2n(C)c1=O [isocaffeine]
- inhibition of cAMP-PDEs [1]: did not inhibit cAMP-PDEs
- periodic amplification of Ca2+ signals (CICR) [5, 9]: gave rise to periodic amplifications of Ca^2+ signals
- insulin secretion [2, 8]: stimulated insulin secretion significantly
- insulin secretion rate ([3]; 11.2 mM glucose): 1.36±0.35 ng/min/50 islets
- stimulation of insulin secretion from islets ([3]; 11.2 mM glucose): no significant stimulatory effect

Compound: C/C=C(/C)C(=O)O[C@H]1C(C)=C2[C@H]([C@@H]1OC(=O)CCCCCCC)[C@@](C)(OC(C)=O)C[C@H](OC(=O)CCC)[C@@]1(O)[C@H]2OC(=O)[C@@]1(C)O [thapsigargin]
- basal insulin secretion ([2]; thapsigargin-treated (Ca2+-depleted) cells): not different compared to that in controls cells
- effect on glucose-dependent caffeine-stimulated secretion ([2]; thapsigargin-treated (ER Ca2+ depleted) cells, caffeine 0.75 mM, FIG. 11A): significantly reduced but not abolished

Compound: glucagons-like peptide 1: test substance glucagons-like peptide 1 (HAEGTFTSDVSSYLEGQAAKEFIAWLVKGR; ends and bridges not checked; UniProt P01275 98-127, looked up)
- periodic amplification of Ca2+ signals (CICR) ([5]; Example 5, FIG. 2: 30 mM KCl, 10 μM D600 or verapamil, 13 mM glucose): gave rise to periodic amplification of Ca^2+ signals

Compound: ryanodine
- effect on glucose-induced insulin secretion ([2]; 100 μM ryanodine, 1 hr exposure): did not alter the glucose-induced insulin secretion
- insulin secretion rate (glucose-induced) ([2]; 100 μM ryanodine, 1 hr exposure, n=4): 193±11 ng/10^6 cell/hr
- insulin secretion rate ([2]; caffeine 0.75 mM plus 100 μM ryanodine): 354±34 ng/10^6 cell/hr
